Results: the supplement of paper PMC10307832

Compound: Cc1cc(Nc2cc(N3CCN(C)CC3)nc(Sc3ccc(NC(=O)C4CC4)cc3)n2)n[nH]1 [Tozasertib] + CCNC(=O)c1noc(-c2cc(C(C)C)c(O)cc2O)c1-c1ccc(CN2CCOCC2)cc1 [Luminespib] (partner 0.01 µM)
Assay: relative viability (nuclei count vs DMSO), 5 days (fraction); higher = more cells survive
In short: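 A single step with final 0.05% Triton X-100, 1% formaldehyde and 1 ug/ml Hoechst fixed the cells and stained nuclei 5 days after treatment. Lung cancer cell lines in 1536-well plates had been treated by pin tool the day after seeding with one drug alone or a fixed anchor-drug dose plus five library-drug doses (not always all listed) in √10 steps, and nuclei were counted on 4× images. Relative viability is the ratio of nuclei in treated wells to nuclei in vehicle wells, taken as the median of duplicate plates.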

201T
relative viability (first compound 0.004 µM): 1.12 | relative viability (first compound 0.01265 µM): 1.06 | relative viability (first compound 0.1265 µM): 1.11

A-427
relative viability (first compound 0.004 µM): 0.983 | relative viability (first compound 0.01265 µM): 0.857 | relative viability (first compound 0.04 µM): 0.97 | relative viability (first compound 0.1265 µM): 0.481

ABC-1
relative viability (first compound 0.004 µM): 0.521 | relative viability (first compound 0.01265 µM): 0.638 | relative viability (first compound 0.04 µM): 0.402 | relative viability (first compound 0.1265 µM): 0.686

BEN
relative viability (first compound 0.004 µM): 0.302 | relative viability (first compound 0.01265 µM): 0.279 | relative viability (first compound 0.04 µM): 0.332 | relative viability (first compound 0.1265 µM): 0.268

CAL-12T
relative viability (first compound 0.004 µM): 0.288 | relative viability (first compound 0.01265 µM): 0.405 | relative viability (first compound 0.04 µM): 0.58 | relative viability (first compound 0.1265 µM): 0.368

COR-L23
relative viability (first compound 0.004 µM): 0.836 | relative viability (first compound 0.01265 µM): 0.619 | relative viability (first compound 0.04 µM): 0.618 | relative viability (first compound 0.1265 µM): 0.637

COR-L 105
relative viability (first compound 0.004 µM): 0.842 | relative viability (first compound 0.01265 µM): 0.966 | relative viability (first compound 0.04 µM): 0.761 | relative viability (first compound 0.1265 µM): 0.609

ChaGo-K-1
relative viability (first compound 0.004 µM): 0.643 | relative viability (first compound 0.01265 µM): 0.672 | relative viability (first compound 0.04 µM): 0.623 | relative viability (first compound 0.1265 µM): 0.45

EKVX
relative viability (first compound 0.004 µM): 0.753 | relative viability (first compound 0.01265 µM): 0.872 | relative viability (first compound 0.04 µM): 0.827 | relative viability (first compound 0.1265 µM): 0.694

EMC-BAC-2
relative viability (first compound 0.004 µM): 1.15 | relative viability (first compound 0.01265 µM): 1.11 | relative viability (first compound 0.04 µM): 1.3 | relative viability (first compound 0.1265 µM): 0.827

EPLC-272H
relative viability (first compound 0.004 µM): 0.267 | relative viability (first compound 0.01265 µM): 0.307 | relative viability (first compound 0.04 µM): 0.197 | relative viability (first compound 0.1265 µM): 0.288

H3255
relative viability (first compound 0.004 µM): 0.753 | relative viability (first compound 0.01265 µM): 0.67 | relative viability (first compound 0.04 µM): 1.02 | relative viability (first compound 0.1265 µM): 0.879

HARA
relative viability (first compound 0.004 µM): 0.659 | relative viability (first compound 0.01265 µM): 0.681 | relative viability (first compound 0.04 µM): 0.496 | relative viability (first compound 0.1265 µM): 0.484

HCC-15
relative viability (first compound 0.004 µM): 0.296 | relative viability (first compound 0.01265 µM): 0.282 | relative viability (first compound 0.04 µM): 0.306 | relative viability (first compound 0.1265 µM): 0.238

HCC-44
relative viability (first compound 0.004 µM): 1.04 | relative viability (first compound 0.01265 µM): 0.829 | relative viability (first compound 0.04 µM): 0.565 | relative viability (first compound 0.1265 µM): 0.796

HCC-827
relative viability (first compound 0.004 µM): 0.281 | relative viability (first compound 0.01265 µM): 0.854 | relative viability (first compound 0.04 µM): 0.714 | relative viability (first compound 0.1265 µM): 0.766

HOP-62
relative viability (first compound 0.004 µM): 0.953 | relative viability (first compound 0.01265 µM): 0.876 | relative viability (first compound 0.04 µM): 0.912 | relative viability (first compound 0.1265 µM): 0.976

LC-2-ad
relative viability (first compound 0.004 µM): 1.09 | relative viability (first compound 0.01265 µM): 0.95 | relative viability (first compound 0.04 µM): 0.821 | relative viability (first compound 0.1265 µM): 0.544

LCLC-97TM1
relative viability (first compound 0.004 µM): 0.895 | relative viability (first compound 0.04 µM): 0.724 | relative viability (first compound 0.1265 µM): 0.615

LCLC-103H
relative viability (first compound 0.004 µM): 0.935 | relative viability (first compound 0.01265 µM): 1.05 | relative viability (first compound 0.04 µM): 1.08 | relative viability (first compound 0.1265 µM): 0.72

LK-2
relative viability (first compound 0.004 µM): 0.204 | relative viability (first compound 0.01265 µM): 0.195 | relative viability (first compound 0.04 µM): 0.166 | relative viability (first compound 0.1265 µM): 0.172

LOU-NH91
relative viability (first compound 0.01265 µM): 0.354 | relative viability (first compound 0.04 µM): 0.33 | relative viability (first compound 0.1265 µM): 0.336

LU99A
relative viability (first compound 0.004 µM): 0.225 | relative viability (first compound 0.01265 µM): 0.249 | relative viability (first compound 0.04 µM): 0.27 | relative viability (first compound 0.1265 µM): 0.218

LXF-289
relative viability (first compound 0.004 µM): 0.573 | relative viability (first compound 0.01265 µM): 0.51 | relative viability (first compound 0.04 µM): 0.664 | relative viability (first compound 0.1265 µM): 0.399

NCI-H23
relative viability (first compound 0.004 µM): 0.198 | relative viability (first compound 0.01265 µM): 0.221 | relative viability (first compound 0.04 µM): 0.183 | relative viability (first compound 0.1265 µM): 0.198

NCI-H322M
relative viability (first compound 0.004 µM): 0.805 | relative viability (first compound 0.01265 µM): 0.996 | relative viability (first compound 0.04 µM): 0.851 | relative viability (first compound 0.1265 µM): 0.564

NCI-H358
relative viability (first compound 0.004 µM): 0.265 | relative viability (first compound 0.01265 µM): 0.394 | relative viability (first compound 0.04 µM): 0.382 | relative viability (first compound 0.1265 µM): 0.234

NCI-H441
relative viability (first compound 0.004 µM): 0.361 | relative viability (first compound 0.01265 µM): 0.323 | relative viability (first compound 0.04 µM): 0.312 | relative viability (first compound 0.1265 µM): 0.261

NCI-H460
relative viability (first compound 0.004 µM): 0.031 | relative viability (first compound 0.01265 µM): 0.0376 | relative viability (first compound 0.04 µM): 0.0324 | relative viability (first compound 0.1265 µM): 0.0295

NCI-H520
relative viability (first compound 0.004 µM): 0.193 | relative viability (first compound 0.01265 µM): 0.219 | relative viability (first compound 0.04 µM): 0.219 | relative viability (first compound 0.1265 µM): 0.233

NCI-H522
relative viability (first compound 0.004 µM): 1.36 | relative viability (first compound 0.01265 µM): 1.48 | relative viability (first compound 0.04 µM): 1 | relative viability (first compound 0.1265 µM): 0.896

NCI-H596
relative viability (first compound 0.004 µM): 0.957 | relative viability (first compound 0.01265 µM): 0.96 | relative viability (first compound 0.04 µM): 1.09 | relative viability (first compound 0.1265 µM): 0.901

NCI-H647
relative viability (first compound 0.004 µM): 0.24 | relative viability (first compound 0.01265 µM): 0.152 | relative viability (first compound 0.04 µM): 0.186 | relative viability (first compound 0.1265 µM): 0.194

NCI-H650
relative viability (first compound 0.004 µM): 0.901 | relative viability (first compound 0.01265 µM): 0.845 | relative viability (first compound 0.04 µM): 0.678 | relative viability (first compound 0.1265 µM): 0.646

NCI-H661
relative viability (first compound 0.004 µM): 1.01 | relative viability (first compound 0.01265 µM): 0.916 | relative viability (first compound 0.04 µM): 0.973 | relative viability (first compound 0.1265 µM): 0.575
